Six compounds from ChEMBL document CHEMBL3272026, “On the structure of medicinal chemistry” (J Med Chem, 1976) can be followed below.

A word on the logP: it is the decadic logarithm of the partition coefficient of the neutral form, usually between octanol and water.

In one data set the test system is Escherichia coli. Kind of data set: Antimicrobial activity against Escherichia coli. Format: functional.
The target in data set [1] is Alcohol dehydrogenase (Homo sapiens) (UniProt P07327+P08319+P00325+P00326+P40394+P11766+P28332). Kind of data set: Binding affinity to alcohol dehydrogenase (unknown origin). The data set is classed as protein assay.
Data set [2] can be described thus: Lipophilicity, log P of the compound. The data set is classed as physicochemical. As to conditions: octanol/water.
A further data set concerns Mollusca. Kind of data set: Increase in mollusk membrane potential assessed as concentration required to raise 20 mV. Format: functional, cell membranes.

SMILES strings stand for the structures.

As to `CCOc1cccc(NS(=O)(=O)c2ccc(N)cc2)c1`, the “log(1/C)” value with Escherichia coli turned out to be 4.88. Compound `NC(=O)c1ccc(F)cc1` showed a log(1/K) in data set [1] of -2.6.

The compound `NC(=O)c1ccc([N+](=O)[O-])cc1` returned a log(1/K) in data set [1] of -2.6. With `Cc1cccc(Nc2ccccc2C(=O)O)c1C` [MEFENAMIC ACID], in data set [2] (read-out: logP), the log partition coefficient (logP) came out at 0.28. Further, the log(1/C) with Mollusca is 3.48. Turning to `O=C(O)c1cc(Cl)cc(Cl)c1O`, in data set [2], the logP is 0.23. Moreover, the log(1/C) with Mollusca amounted to 3.48.

Take `Nc1ccc(S(=O)(=O)Nc2ccc(Cl)cc2)cc1`: the “log(1/C)” value in the data set with Escherichia coli is reported as 4.8.
